This is an account of results in US4678783A, “Substituted isoquinolinesulfonyl compounds” (Asahi Kasei Kogyo Kabushiki Kaisha, priority 1984, dated 1987).

The test system of experiment [1] is mesenteric artery of a rabbit. The experiment in a line: Relaxation of Mesenteric Artery (KCl-contracted spiral strip). Set-up: species or system rabbit of Japanese local variety. The conditions noted are these: Oryctolagus cuniculus; concentration of the hydrochloride attaining 50% of complete relaxation; rabbit mesenteric artery contracted with KCl; read-out: ED50 (the source's name). How it is done: A rabbit of Japanese local variety weighing about 3 kg was subjected to blood-letting to death. Then, abdomen of the rabbit was dissected to pick up a mesenteric artery. […] Thus, the shrinkage and relaxation of the artery was ready to be measured as a load on the transducer. To the organ bath, KCl was added in an amount which makes the artery shrink at a half length that in 15 to 20 mM aqueous solution. Then, hydrochlorides of the compounds of the present invention were added to the organ bath to observe relaxation effect on the artery.
Effect of the compounds of the present invention on relaxation of mesenteric artery was examined according to the method as mentioned hereinbefore.

The test system of experiment [2] is male spontaneously hypertensive rats (SHR). As to the kind of experiment: Reduction of Blood Pressure (systolic, tail plethysmographic method, oral). Format: in vivo, rat (SHR, Wister Kyoto). How it is done:
Male spontaneously hypertensive rats (SHR, Wister Kyoto) weighing 300 to 350 g were used. Systolic blood pressure was measured indirectly by the tail plethysmographic method in conscious SHR, just prior to, and 1, 2, 4 and 6 hours after oral administration of test drugs. Test drugs, dissolved in deionized water, were administered orally in a volume of 10 ml-solution/kg-rat. Reduction in systolic blood pressure (ΔP, mmHg) was calculated by substracting a systolic blood pressure after administration from that just prior to administration.
Effect of the compounds of the present invention on reduction of blood pressure was examined according to the method as mentioned hereinbefore.

`CC1CNCCCN1S(=O)(=O)c1cccc2cnccc12` (stereo not drawn) [Compound (2), 1-(5-isoquinolinesulfonyl)-2-methylhomopiperazine]: in experiment [1], the EC50 amounted to 4 µM. Still for that read-out and setting: then `CC1CNCCN(S(=O)(=O)c2cccc3cnccc23)C1` (stereo not drawn) [Compound (4), 1-(5-isoquinolinesulfonyl)-6-methylhomopiperazine], with 1.6 µM; and `CC1NCCCN(S(=O)(=O)c2cccc3cnccc23)C1C` (stereo not drawn) [Compound (5), 1-(5-isoquinolinesulfonyl)-2,3-dimethylhomopiperazine], with 8 µM; and `CC1(C)CN(S(=O)(=O)c2cccc3cnccc23)CCCN1` [Compound (6), 1-(5-isoquinolinesulfonyl)-3,3-dimethylhomopiperazine], with 10 µM. The same measure, in the same setting: with `CCC1CN(S(=O)(=O)c2cccc3cnccc23)CCCN1` (stereo not drawn) [Compound (7), 1-(5-isoquinolinesulfonyl)-3-ethylhomopiperazine] the figure was 6 µM; with `CC(C)CC1CN(S(=O)(=O)c2cccc3cnccc23)CCCN1` (stereo not drawn) [Compound (9), 1-(5-isoquinolinesulfonyl)-3-isobutylhomopiperazine], 4 µM.

On to `O=S(=O)(c1cccc2cnccc12)N1CCCNC(c2ccccc2)C1` (stereo not drawn) [Compound (10), 1-(5-isoquinolinesulfonyl)-3-phenylhomopiperazine], for which the EC50 in experiment [1] stood at 12 µM. Take `CCC1CNCCN(S(=O)(=O)c2cccc3cnccc23)C1` (stereo not drawn) [Compound (12), 1-(5-isoquinolinesulfonyl)-6-ethylhomopiperazine]: the EC50 in experiment [1] was found to be 3 µM.

As for `CCCC1CNCCN(S(=O)(=O)c2cccc3cnccc23)C1` (stereo not drawn) [Compound (13), 1-(5-isoquinolinesulfonyl)-6-propylhomopiperazine], in experiment [1], the EC50 was 11 µM. On to `CCCCCCC1CNCCN(S(=O)(=O)c2cccc3cnccc23)C1` (stereo not drawn) [Compound (16), 1-(5-isoquinolinesulfonyl)-6-hexylhomopiperazine], for which, in experiment [1], the EC50 came out at 12 µM. In the case of `CN1CCCN(S(=O)(=O)c2cccc3cnccc23)CC1` [Compound (19), 1-(5-isoquinolinesulfonyl)-4-methylhomopiperazine], the EC50 in experiment [1] is 8 µM. On the same count and under the same terms, with `CCN1CCCN(S(=O)(=O)c2cccc3cnccc23)CC1` [Compound (20), 1-(5-isoquinolinesulfonyl)-4-ethylhomopiperazine] the figure was 11 µM; with `CCCCN1CCCN(S(=O)(=O)c2cccc3cnccc23)CC1` [Compound (22), 1-(5-isoquinolinesulfonyl)-4-butylhomopiperazine], 13 µM. Consider `CCCCCCN1CCCN(S(=O)(=O)c2cccc3cnccc23)CC1` [Compound (23), 1-(5-isoquinolinesulfonyl)-4-hexylhomopiperazine], for which the EC50 in experiment [1] came to 12 µM. As to `NCCNS(=O)(=O)c1cccc2c(Cl)nccc12` [Compound (24), N-(2-aminoethyl)-1-chloro-5-isoquinolinesulfonamide], the EC50 in experiment [1] was determined as 5 µM. In addition, the “ΔPmax (maximally reduced blood pressure)” value in experiment [2] (50 mg/kg) worked out at 70 mmHg.

Turning to `NCCCCNS(=O)(=O)c1cccc2c(Cl)nccc12` [Compound (25), N-(4-aminobuthyl)-1-chloro-5-isoquinolinesulfonamide], the EC50 in experiment [1] is 7 µM. In addition, the “ΔPmax (maximally reduced blood pressure)” value in experiment [2] (100 mg/kg) was determined as 50 mmHg. Regarding `CC(CN)NS(=O)(=O)c1cccc2c(Cl)nccc12` (stereo not drawn) [Compound (26), N-(2-amino-1-methylethyl)-1-chloro-5-isoquinolinesulfonamide], in experiment [1], the EC50 turned out to be 4 µM. For the same molecule, in experiment [2] (50 mg/kg), the “ΔPmax (maximally reduced blood pressure)” value worked out at 53 mmHg. The matching figures for `CCCCC(CN)NS(=O)(=O)c1cccc2c(Cl)nccc12` (stereo not drawn) [Compound (27), N-(1-aminomethylpentyl)-1-chloro-5-isoquinolinesulfonamide]: 4 µM and 45 mmHg.

With `CC(C)C(N)CNS(=O)(=O)c1cccc2c(Cl)nccc12` (stereo not drawn) [Compound (28), N-(2-amino-3-methylbutyl)-1-chloro-5-isoquinolinesulfonamide], in experiment [1], the EC50 turned out to be 10 µM. In addition, in experiment [2] (50 mg/kg), the “ΔPmax (maximally reduced blood pressure)” value is listed as 58 mmHg. The matching figures for `CCCCN(CCCC)CCCNS(=O)(=O)c1cccc2c(Cl)nccc12` [Compound (29), N-(3-di-n-butylaminopropyl)-1-chloro-5-isoquinolinesulfonamide]: 11 µM and 43 mmHg.

For the molecule `CN(CCNS(=O)(=O)c1cccc2c(Cl)nccc12)C1CCCCC1` [Compound (30), N-[2-(N-cyclohexyl-N-methylamino)ethyl]-1-chloro-5-isoquinolinesulfonamide], the EC50 in experiment [1] worked out at 13 µM. In addition, the “ΔPmax (maximally reduced blood pressure)” value in experiment [2] (50 mg/kg) is 54 mmHg. `N=C(N)NCCCCNS(=O)(=O)c1cccc2c(Cl)nccc12` [Compound (32), N-(4-guanidinobutyl)-1-chloro-5-isoquinolinesulfonamide]: the EC50 in experiment [1] was 4 µM. The “ΔPmax (maximally reduced blood pressure)” value in experiment [2] (100 mg/kg) amounted to 38 mmHg. The matching figures for `CC(CNC(=N)N)NS(=O)(=O)c1cccc2c(Cl)nccc12` (stereo not drawn) [Compound (33), N-(2-guanidino-1-methylethyl)-1-chloro-5-isoquinolinesulfonamide]: 4 µM and 51 mmHg. For `CCCCC(CNC(=N)N)NS(=O)(=O)c1cccc2c(Cl)nccc12` (stereo not drawn) [Compound (34), N-(1-guanidinomethylpentyl)-1-chloro-5-isoquinolinesulfonamide], in that order: 8 µM and 45 mmHg.

For the molecule `CC(C)C(CNS(=O)(=O)c1cccc2c(Cl)nccc12)NC(=N)N` (stereo not drawn) [Compound (35), N-(2-guanidino-3-methylbutyl)-1-chloro-5-isoquinolinesulfonamide], in experiment [1], the EC50 came to 8 µM. Also, the “ΔPmax (maximally reduced blood pressure)” value in experiment [2] (100 mg/kg) came to 33 mmHg. For `CC(CNC(=N)N)CNS(=O)(=O)c1cccc2c(Cl)nccc12` (stereo not drawn) [Compound (36), N-(3-guanidino-2-methylpropyl)-1-chloro-5-isoquinolinesulfonamide], the EC50 in experiment [1] came to 7 µM. Further, the “ΔPmax (maximally reduced blood pressure)” value in experiment [2] (100 mg/kg) amounted to 48 mmHg. For `CC(CCNS(=O)(=O)c1cccc2c(Cl)nccc12)CNC(=N)N` (stereo not drawn) [Compound (37), N-(4-guanidino-3-methylbutyl)-1-chloro-5-isoquinolinesulfonamide], in that order: 11 µM and 31 mmHg. For `CC1CN(S(=O)(=O)c2cccc3c(Cl)nccc23)CCN1` (stereo not drawn) [Compound (38), 1-(1-chloro-5-isoquinolinesulfonyl)-3-methylpiperazine], in that order: 17 µM and 45 mmHg. In the case of `CCC1CN(S(=O)(=O)c2cccc3c(Cl)nccc23)CCN1` (stereo not drawn) [Compound (39), 1-(1-chloro-5-isoquinolinesulfonyl)-3-ethylpiperazine], the EC50 in experiment [1] came out at 18 µM. Moreover, the “ΔPmax (maximally reduced blood pressure)” value in experiment [2] (100 mg/kg) is reported as 48 mmHg. For `CC(C)CC1CN(S(=O)(=O)c2cccc3c(Cl)nccc23)CCN1` (stereo not drawn) [Compound (40), 1-(1-chloro-5-isoquinolinesulfonyl)-3-isobutylpiperazine], the EC50 in experiment [1] turned out to be 13 µM. The “ΔPmax (maximally reduced blood pressure)” value in experiment [2] (100 mg/kg) turned out to be 51 mmHg. On to `CC1CN(S(=O)(=O)c2cccc3c(Cl)nccc23)C(C)CN1` (stereo not drawn) [Compound (41), 1-(1-chloro-5-isoquinolinesulfonyl)-2,5-dimethylpiperazine], for which the EC50 in experiment [1] is 14 µM. In experiment [2] (100 mg/kg), the “ΔPmax (maximally reduced blood pressure)” value is on record as 39 mmHg. With `CN1CCN(S(=O)(=O)c2cccc3c(Cl)nccc23)CC1` [Compound (42), 1-(1-chloro-5-isoquinolinesulfonyl)-4-methylpiperazine], the EC50 in experiment [1] was 21 µM. In addition, the “ΔPmax (maximally reduced blood pressure)” value in experiment [2] (100 mg/kg) came out at 56 mmHg. Consider `N=C(N)N1CCN(S(=O)(=O)c2cccc3c(Cl)nccc23)CC1` [Compound (43), 1-(1-chloro-5-isoquinolinesulfonyl)-4-amidinopiperazine], for which, in experiment [1], the EC50 stood at 2 µM. Also, the “ΔPmax (maximally reduced blood pressure)” value in experiment [2] (100 mg/kg) amounted to 32 mmHg. With `N=C(N)N1CCCN(S(=O)(=O)c2cccc3c(Cl)nccc23)CC1` [Compound (44), 1-(1-chloro-5-isoquinolinesulfonyl)-4-amidinohomopiperazine], the EC50 in experiment [1] came out at 4 µM. Also, in experiment [2] (100 mg/kg), the “ΔPmax (maximally reduced blood pressure)” value is 25 mmHg.

As for `CCNCCNS(=O)(=O)c1cccc2c(Cl)nccc12` [Compound (71), N-(2-ethylaminoethyl)-1-chloro-5-isoquinolinesulfonamide], in experiment [1], the EC50 turned out to be 12 µM. Turning to `CCCNCCNS(=O)(=O)c1cccc2c(Cl)nccc12` [Compound (72), N-(2-propylaminoethyl)-1-chloro-5-isoquinolinesulfonamide], in experiment [1], the EC50 amounted to 11 µM.

Regarding `CCCCNCCNS(=O)(=O)c1cccc2c(Cl)nccc12` [Compound (73), N-(2-butylaminoethyl)-1-chloro-5-isoquinolinesulfonamide], the EC50 in experiment [1] came to 8 µM. Consider `O=S(=O)(c1cccc2c(Cl)nccc12)N1CCNCC1` [Compound (75), 1-(1-chloro-5-isoquinolinesulfonyl)piperazine], for which the EC50 in experiment [1] was determined as 1 µM. With `NCCNS(=O)(=O)c1cccc2cnccc12` [compound 1, reference compound], the “ΔPmax (maximally reduced blood pressure)” value in experiment [2] (100 mg/kg) is reported as 31 mmHg. The same measure, in the same setting: with `CC1CN(S(=O)(=O)c2cccc3cnccc23)CCN1` (stereo not drawn) [compound 3, reference compound] the figure was 10 mmHg.
